Data: patent US20080187492A1, “Drosophila Models For Diseases Affecting Learning and Memory” (priority 2004, published 2008)

Legend:
[1] = tested on: Drosophila expressing mutant huntington protein in the MBs; assay: Naive courtship and short-term memory in Drosophila expressing mutant huntington in the MBs; type: in vivo; details: 5 day old flies; p<0.05
Source text: Both HDAC inhibition and CBP overexpression should in theory promote an increase CREB mediated gene transcription. […] Since we knew that we could use a PDE-4 inhibitor or mGluR antagonists or lithium to increase cAMP levels thereby promoting CREB mediated transcription, we decided to see if these compounds could restore the memory deficit in Drosophila expressing mutant huntington in the MBs.

[2] = tested on: FS (dFMR1-3+frame shifted rescue fragment) flies; assay: Conditioned courtship: learning during training, FS flies; type: in vivo, Drosophila melanogaster; details: MPEP 200 μg/ml in development, adulthood or both
Source text: (§1) The role of dFMR1 in learning during training and immediate recall. The flies used were w1118 (the background stock from which the mutation was derived), dFMR1-3 (the mutation lacking dFMR1 expression), Rescue (dFMR1-3+wild type rescue fragment) and FS (frame shift, dFMR1-3+frame shifted rescue fragment) all from Dockendorff et al, 2002. To assess learning during training male flies are placed in a training chamber with a previously mated female for one hour. The amount of time the male spent courting in the initial ten-minute interval was compared to the amount of time the male spent courting the female target in the final ten-minute interval (FIG. 1). […] It is important to note that the level of courtship behavior towards the previously mated female is similar between the two mutant groups and the w1118 and Rescue groups. […] This is important to note, because without actively courting, the male fly cannot be trained (Tompkins et al. 1982; 1983).
(§2) Learning during training. In order to assess learning during training, the male flies were placed in a training chamber with a previously mated female for one hour. The amount of time the male spent courting in the first ten-minute interval was compared to the amount of time the male spent courting the female target in the last ten-minute interval (FIG. 4A).
(§3) Behavioral Training and Testing. […]

[3] = tested on: Rescue (dFMR1-3+wild type rescue fragment) flies; assay: Conditioned courtship: learning during training, Rescue flies; type: in vivo, Drosophila melanogaster; details: MPEP 200 μg/ml in development, adulthood or both
Source text: as §1, §2, §3

[4] = tested on: FS (dFMR1-3+frame shifted rescue fragment) flies; assay: Quality of naive courtship (progress to later courtship steps), FS flies; type: in vivo, Drosophila melanogaster
Experimental: In order to determine if MPEP can get into the Drosophila central nervous system (CNS) through feeding behavior, we mixed MPEP into the food at a concentration of 1,000 μg/ml (433.0 μM). Males were raised on CT food and then placed on either CT or M food. Naive males were placed in the training chamber for one hour with no female, and then placed with a virgin target female for a ten-minute interval. The naive courtship behavior was reduced by high MPEP concentration in Rescue (p<0.0001) and FS (p<0.0005) lines, and it was depressed to similar levels by high MPEP treatment in the Rescue and FS groups (FIG. 2A). […] FIG. 2B dissects the steps involved in naive courtship behavior. […] Lowering the dose of MPEP and examining naive courtship. We next decided to try a lower dose of MPEP to 200 μg/ml (86.6 μM) mixed into the food of the Drosophila. In these experiments flies were placed on either CT or M food in the larval stage and then placed on either CT of M food within four hours of eclosion. […] Therefore giving this drug in adulthood only is effective in enhancing naive courtship behavior. […] The MPEP in development can rescue the naive courtship phenotype regardless of whether or not the flies receive it as adults. Further analysis of the quality of courtship that was performed by naive males was assessed by binning the number of males to advance to a particular phase of courtship for each genotype and pharmacologic treatment (FIG. 3B).

[5] = tested on: Rescue (dFMR1-3+wild type rescue fragment) flies; assay: Naive courtship behavior (courtship index toward virgin female), Rescue flies; type: in vivo, Drosophila melanogaster; details: 20-day-old

Row | Compound | short-term memory [1] | learning during training ([2]; 20-day-old) | learning during training ([2]; 5 day old) | learning during training (initial vs final courtship levels) ([3]; 20-day-old) | learning during training ([3]; 5 day old) | quality of naive courtship ([4]; 20-day-old, MPEP (86.6 μM)) | quality of naive courtship ([4]; 5 day old, MPEP 200 μg/ml in development or adulthood) | steps involved in naive courtship behavior ([4]; 5 day old, MPEP 1,000 μg/ml in adulthood, relative to CT-CT Rescue) | naive courtship activity ([5]; MPEP (86.6 μM) in adulthood only (CT-M)) | naive courtship activity ([5]; MPEP (86.6 μM) in development then M or CT food as adults)
1 | N[C@](CC1c2ccccc2Oc2ccccc21)(C(=O)O)[C@H]1C[C@@H]1C(=O)O [LY341495, (2S)-2-amino-2-[(1S,2S)-2-carboxycycloprop-1-yl]-3-(xanth-9-yl) propionic acid] | restored short-term memory | – | – | – | – | – | – | – | – | –
2 | Cc1cccc(C#Cc2ccccc2)n1 [MPEP, 2-methyl-6-(phenylethynyl)pyridine] | – | able to restore learning during training | does not adversely affect learning during training | significant depression from the initial to final intervals | does not adversely affect learning during training | in adulthood, but not in development alone, MPEP treatment can affect the quality of naive courtship behavior | can affect the quality of naive courtship behavior | failed to progress to later steps in courtship behavior | depressed relative to CT-CT Rescue flies | courted as vigorously as CT-CT Rescues flies
